# Laboratory results taken from patent US11946059B2, “In vivo generation of water-soluble cannabinoids in plant cell suspension cultures” (Trait Biosciences Inc., priority 2017, dated 2024).
# Assay: Cannabinoid stability in solution (time course incubation)
# Type: physicochemical
# Details: room temperature, shielded from light
# Method: Rather, levels increased slightly in all treatments. The absence of any residual UGTs were cross-check and confirmed as the samples were purified by SPE, washed and eluted in 30% and 65%-100% ethanol, respectively.
# Materials and Methods Example 19: Cannabinoid Stability in Solution.
# The present inventors generated a stock solution of the CBD/CBDA+glycosides mixture in water which was further diluted 10× in all treatment solutions. A 10 mL starting volume was used for all treatments, and all treatments were prepared in triplicate. […] Each sample was incubated at room temperature. Samples were stored in 15 mL polypropylene centrifuge tubes. All samples were shielded from light—tubes were wrapped in aluminum foil. Each sample was prepared in triplicate in the following buffers: water only; pH=3; pH=4; pH=7; pH=8; water only+10 mM ascorbic acid; pH=3+10 mM ascorbic acid; pH=4+10 mM ascorbic acid; pH=7+10 mM ascorbic acid; and pH=8+10 mM ascorbic acid.
# [1] = Water + AA (10 mM ascorbic acid)
# [2] = pH = 3 + AA (10 mM ascorbic acid)
# [3] = pH = 4 + AA (10 mM ascorbic acid)
# [4] = pH = 7 + AA (10 mM ascorbic acid)
# [5] = pH = 8 + AA (10 mM ascorbic acid)
compound,measurement,setting,value
C=C(C)C1CCC(C)=CC1c1c(O)cc(CCCCC)cc1OC1OC(CO)C(O)C(O)C1O (centres unmarked) [1X CBD Gly],Day 1 concentration in solution,[1],7.99 ± 4.17 µg/mL
same,Day 1 concentration in solution,Water,1.20 ± 21.68 µg/mL
same,Day 1 concentration in solution,[2],9.78 ± 5.27 µg/mL
same,Day 1 concentration in solution,pH = 3,8.83 ± 1.80 µg/mL
same,Day 1 concentration in solution,[3],5.82 ± 3.11 µg/mL
same,Day 1 concentration in solution,pH = 4,below LOQ
same,Day 1 concentration in solution,[4],5.73 ± 4.70 µg/mL
same,Day 1 concentration in solution,pH = 7,15.45 ± 0.07 µg/mL
same,Day 1 concentration in solution,[5],1.04 ± 4.15 µg/mL
same,Day 1 concentration in solution,pH = 8,12.86 ± 4.15 µg/mL
same,Day 4 concentration in solution,[1],17.55 ± 5.99 µg/mL
same,Day 4 concentration in solution,Water,15.11 ± 10.77 µg/mL
same,Day 4 concentration in solution,[2],17.99 ± 4.60 µg/mL
same,Day 4 concentration in solution,pH = 3,18.94 ± 4.88 µg/mL
same,Day 4 concentration in solution,[3],17.02 ± 5.68 µg/mL
same,Day 4 concentration in solution,pH = 4,29.03 ± 8.17 µg/mL
same,Day 4 concentration in solution,[4],19.96 ± 9.83 µg/mL
same,Day 4 concentration in solution,pH = 7,19.64 ± 3.44 µg/mL
same,Day 4 concentration in solution,[5],15.86 ± 2.63 µg/mL
same,Day 4 concentration in solution,pH = 8,26.99 ± 15.29 µg/mL
same,Day 5 concentration in solution,[1],19.70 ± 0.80 µg/mL
same,Day 5 concentration in solution,Water,14.60 ± 1.31 µg/mL
same,Day 5 concentration in solution,[2],19.29 ± 3.26 µg/mL
same,Day 5 concentration in solution,pH = 3,18.00 ± 0.59 µg/mL
same,Day 5 concentration in solution,[3],19.34 ± 1.90 µg/mL
same,Day 5 concentration in solution,pH = 4,18.26 ± 0.52 µg/mL
same,Day 5 concentration in solution,[4],19.05 ± 3.91 µg/mL
same,Day 5 concentration in solution,pH = 7,17.50 ± 1.63 µg/mL
same,Day 5 concentration in solution,[5],20.14 ± 1.73 µg/mL
same,Day 5 concentration in solution,pH = 8,19.73 ± 0.55 µg/mL
same,Day 6 concentration in solution,[1],34.98 ± 9.28 µg/mL
same,Day 6 concentration in solution,Water,8.56 ± 7.04 µg/mL
same,Day 6 concentration in solution,[2],27.67 ± 9.51 µg/mL
same,Day 6 concentration in solution,pH = 3,21.59 ± 7.97 µg/mL
same,Day 6 concentration in solution,[3],31.67 ± 4.29 µg/mL
same,Day 6 concentration in solution,pH = 4,32.87 ± 8.08 µg/mL
same,Day 6 concentration in solution,[4],30.43 ± 4.82 µg/mL
same,Day 6 concentration in solution,pH = 7,46.80 ± 10.12 µg/mL
same,Day 6 concentration in solution,[5],32.97 ± 1.31 µg/mL
same,Day 6 concentration in solution,pH = 8,44.10 ± 3.45 µg/mL
same,Day 7 concentration in solution,[1],24.99 ± 7.29 µg/mL
same,Day 7 concentration in solution,Water,23.89 ± 5.27 µg/mL
same,Day 7 concentration in solution,[2],19.38 ± 0.46 µg/mL
same,Day 7 concentration in solution,pH = 3,27.06 ± 4.05 µg/mL
same,Day 7 concentration in solution,[3],23.30 ± 3.95 µg/mL
same,Day 7 concentration in solution,pH = 4,26.96 ± 0.46 µg/mL
same,Day 7 concentration in solution,[4],39.57 ± 4.63 µg/mL
same,Day 7 concentration in solution,pH = 7,22.14 ± 6.83 µg/mL
same,Day 7 concentration in solution,[5],37.93 ± 2.89 µg/mL
same,Day 7 concentration in solution,pH = 8,32.42 ± 8.76 µg/mL
